Assay results taken from the NIST ThermoML archive (doi:10.1021/je9004905).
Several values for one entry are separate records, joined by “and”; a condition that tells them apart may be missing. Identical values can stand only once.

Conditions: Liquid, Closed cell (Static) method

OCCO [1,2-ethanediol]
Conditions	vapor or sublimation pressure [kPa]
307.7 K	0.028
312.6 K	0.041
316.5 K	0.055
318.8 K	0.061
322.1 K	0.077
326.1 K	0.107
328.2 K	0.124
334.5 K	0.196
335.2 K	0.201
340.2 K	0.278
347.9 K	0.454
359.2 K	0.9
367.9 K	1.483
373.4 K	1.95
384.5 K	3.467

O=CCO [2-hydroxyacetaldehyde]
Conditions	vapor or sublimation pressure [kPa]
295.85 K	0.0037
305.1 K	0.009
305.51 K	0.0096
319.5 K	0.0335
319.84 K	0.0335
322.38 K	0.0368
323.64 K	0.0458
327.73 K	0.062
333.04 K	0.0984
339.32 K	0.153
340.91 K	0.17
341.95 K	0.182
342.82 K	0.198
346.83 K	0.253
355.98 K	0.486

CC(=O)CO [acetol]
Conditions	vapor or sublimation pressure
273.22 K	0.127 kPa
275.48 K	0.136 kPa
277.78 K	0.162 kPa
278.55 K	0.167 kPa and 0.172 kPa
280.9 K	0.201 kPa
281.69 K	0.205 kPa and 0.21 kPa
289.86 K	0.356 kPa
290.7 K	0.363 kPa and 0.36 kPa
293.26 K	0.431 kPa
295.86 K	0.516 kPa and 0.495 kPa
296.74 K	0.531 kPa
300.3 K	0.617 kPa
301.2 K	0.642 kPa
302.11 K	0.717 kPa
303.03 K	0.746 kPa
303.95 K	0.817 kPa
